# Results published in US20150004224A1.
# Values joined by “and” are separate entries in the source; they are usually repeats but may differ in a detail not shown here. Equal entries are not always repeated.
# System: Hep G2 hepatocarcinoma cells
# Assay: Gene expression profiling of Hep G2 cells incubated with EPA, DHA, DPA (Illumina HT-12 bead arrays, Ingenuity iReport)
# [1] = EPA 100 μM, DHA 40 μM, DPA 11 μM
# [2] = top genes uniquely regulated by DPA (11 μM), 48 hours
smiles,measurement,setting,value
"CC/C=C\C/C=C\C/C=C\C/C=C\C/C=C\CCCC(=O)O [EPA, eicosapentaenoic acid (C20:5 n-3)]",Beta-estradiol (inhibited) (top genes uniquely regulated by EPA),EPA 100 μM,←
same,GNAI3 regulation (top genes uniquely regulated by EPA),EPA 100 μM,↑
same,GOS2 regulation (top genes uniquely regulated by EPA),EPA 100 μM,↓
same,HERPUD1 regulation (top genes uniquely regulated by EPA),EPA 100 μM,↓
same,HIST2H2BE (includes others) regulation (top genes uniquely regulated by EPA),EPA 100 μM,↑
same,IER3 regulation (top genes uniquely regulated by EPA),EPA 100 μM,↓
same,IL2 (inhibited) (top genes uniquely regulated by EPA),EPA 100 μM,←
same,Lipopolysaccharide (inhibited) (top genes uniquely regulated by EPA),EPA 100 μM,←
same,MAT2A regulation (top genes uniquely regulated by EPA),EPA 100 μM,↑
same,NFKBIA regulation (top genes uniquely regulated by EPA),EPA 100 μM,↓
same,NFkB (complex) (inhibited) (top genes uniquely regulated by EPA),EPA 100 μM,←
same,RGS2 (includes EG: 19735) regulation (top genes uniquely regulated by EPA),EPA 100 μM,↑
same,AHSA2 regulation (top genes commonly regulated),[1],↑
same,CATSPER2 regulation (top genes commonly regulated),[1],↓
same,CCL20 regulation (top genes commonly regulated),[1],↓
same,CDKN2AIPNL regulation (top genes commonly regulated),[1],↓
same,HIST1H3A (includes others) up-regulation: symbol for regulation in common,[1],¶(DHA)
same,HIST2H2AA3/HIST2H2AA4 up-regulation: symbol for regulation in common,[1],¶(DHA)
same,IL8 regulation (top genes commonly regulated),[1],↓
same,LOX up-regulation: symbol for regulation in common,[1],¶(DHA)
same,RELB down-regulation: symbol for regulation in common,[1],¶(DPA)
same,RELB regulation (top genes commonly regulated),[1],↓
same,SRSF1 regulation (top genes commonly regulated),[1],↑
same,SRSF1 up-regulation: symbol for regulation in common,[1],¶(DPA)
"CC/C=C\C/C=C\C/C=C\C/C=C\C/C=C\CCCCCC(=O)O [DPA, docosapentaenoic acid (C22:5 n-3)]",number of genes involved in lipid metabolism responsive,1 μM DPA,2 genes
same,fewer genes affected at the lower than at the higher DPA concentration,1 μM vs 11 μM DPA,10 fold
same,increase in number of cardiovascular physiology genes affected,11 μM DPA vs 1 μM DPA,five-fold
same,number of lipid metabolism genes uniquely responding with statistically significant change in expression,"11 μM DPA, not 1 μM",22 genes
same,"number of genes uniquely responsive to the higher, but not the lower, DPA level",11 μM vs 1 μM DPA,310 genes and 300 genes
same,Cardiovascular: Total gene responses Low [DPA],DPA 1 μM,10
same,Inflammatory: Total gene responses Low [DPA],DPA 1 μM,18
same,Lipid metabolism: Total gene responses Low [DPA],DPA 1 μM,2
same,Cardiovascular: Gene responses in common,DPA 1 μM and 11 μM,6
same,Inflammatory: Gene responses in common,DPA 1 μM and 11 μM,4
same,Lipid metabolism: Gene responses in common,DPA 1 μM and 11 μM,0
same,APOA2 expression Fold Change,DPA 11 μM,−1.229
same,CD83 expression Fold Change,DPA 11 μM,−1.629
same,Cardiovascular: Total gene responses High [DPA],DPA 11 μM,51
same,DGAT1 expression Fold Change,DPA 11 μM,1.602
same,DNAJB1 expression Fold Change,DPA 11 μM,−1.489
same,FGFR3 expression Fold Change,DPA 11 μM,1.336
same,GNAI3 expression Fold Change,DPA 11 μM,1.455
same,IL8 expression Fold Change,DPA 11 μM,−2.535
same,IL18 (includes EG: 16173) expression Fold Change,DPA 11 μM,−1.347
same,IL32 expression Fold Change,DPA 11 μM,−1.629
same,IP6K1 expression Fold Change,DPA 11 μM,−1.242
same,IP6K2 expression Fold Change,DPA 11 μM,1.319
same,Inflammatory: Total gene responses High [DPA],DPA 11 μM,22
same,KIT expression Fold Change,DPA 11 μM,1.239
same,Lipid metabolism: Total gene responses High [DPA],DPA 11 μM,22
same,NFKB1 expression Fold Change,DPA 11 μM,−1.386
same,PDPN (includes EG: 10630) expression Fold Change,DPA 11 μM,−1.307
same,PGF expression Fold Change,DPA 11 μM,−1.284
same,PIP4K2B expression Fold Change,DPA 11 μM,−1.578
same,PLA2G16 expression Fold Change,DPA 11 μM,−1.337
same,PLIN5 expression Fold Change,DPA 11 μM,−1.371
same,PTGR2 expression Fold Change,DPA 11 μM,−1.416
same,PTX3 expression Fold Change,DPA 11 μM,−1.536
same,RGS2 (includes EG: 19735) expression Fold Change,DPA 11 μM,1.289
same,STIP1 expression Fold Change,DPA 11 μM,−1.469
same,ACADSB (short/branched chain acyl-CoA dehydrogenase) expression,DPA at 11 μM,upregulates
same,HMGCR expression,DPA at 11 μM,downregulated
same,SQLE expression,DPA at 11 μM,downregulated
same,AHSA2 regulation (top genes commonly regulated),[1],↑
same,AHSA2 up-regulation: symbol for regulation in common,[1],→♦
same,ALPP down-regulation: symbol for regulation in common,[1],¶(DHA)
same,ALPP regulation (top genes commonly regulated),[1],↓
same,CATSPER2 down-regulation: symbol for regulation in common,[1],→♦
same,CATSPER2 regulation (top genes commonly regulated),[1],↓
same,CCBE1 down-regulation: symbol for regulation in common,[1],¶(DHA)
same,CCBE regulation (top genes commonly regulated),[1],↓
same,CCL20 regulation (top genes commonly regulated),[1],↓
same,CDKN2AIPNL regulation (top genes commonly regulated),[1],↓
same,DDX51 down-regulation: symbol for regulation in common,[1],¶(DHA)
same,DDX51 regulation (top genes commonly regulated),[1],↓
same,IL8 regulation (top genes commonly regulated),[1],↓
same,MST1 (includes EG: 15235) regulation (top genes commonly regulated),[1],↑
same,MST1 (includes EG: 15235) up-regulation: symbol for regulation in common,[1],→¶(DHA)
same,RELB down-regulation: symbol for regulation in common,[1],¶(EPA)
same,RELB regulation (top genes commonly regulated),[1],↓
same,SRSF1 regulation (top genes commonly regulated),[1],↑
same,SRSF1 up-regulation: symbol for regulation in common,[1],→¶(EPA)
same,increase in number of genes involved in inflammatory pathways,printed: observed at 1 μM,only a minor increase
same,ALDOC gene regulation,[2],↑
same,AMT gene regulation,[2],↑
same,HNRNPA2B1 gene regulation,[2],↑
same,MGC16121 gene regulation,[2],↑
same,PRKCD gene regulation,[2],←
same,QRFPR gene regulation,[2],↓
same,RELA (inhibited) gene regulation,[2],←
same,SRSF5 gene regulation,[2],↑
same,STK36 gene regulation,[2],↑
same,TLR7 (inhibited) gene regulation,[2],←
same,TOP3B gene regulation,[2],↑
same,ZNF14 gene regulation,[2],↑
"CC/C=C\C/C=C\C/C=C\C/C=C\C/C=C\C/C=C\CCC(=O)O [DHA, docosahexaenoic acid (C22:6 n-3)]",FOXO3 regulation (top genes uniquely regulated by DHA),DHA 40 μM,←
same,LSMD1 regulation (top genes uniquely regulated by DHA),DHA 40 μM,↑
same,MAP2K2 regulation (top genes uniquely regulated by DHA),DHA 40 μM,↓
same,MRPS34 regulation (top genes uniquely regulated by DHA),DHA 40 μM,↑
same,MT1X regulation (top genes uniquely regulated by DHA),DHA 40 μM,↑
same,NFKB1 regulation (top genes uniquely regulated by DHA),DHA 40 μM,←
same,SNORA62 regulation (top genes uniquely regulated by DHA),DHA 40 μM,↑
same,TNFSF11 regulation (top genes uniquely regulated by DHA),DHA 40 μM,←
same,ZNF652 regulation (top genes uniquely regulated by DHA),DHA 40 μM,↓
same,AHSA2 regulation (top genes commonly regulated),[1],↑
same,ALPP down-regulation: symbol for regulation in common,[1],¶(DPA)
same,ALPP regulation (top genes commonly regulated),[1],↓
same,CATSPER2 regulation (top genes commonly regulated),[1],↓
same,CCBE1 down-regulation: symbol for regulation in common,[1],¶(DPA)
same,CCBE regulation (top genes commonly regulated),[1],↓
same,CCL20 regulation (top genes commonly regulated),[1],↓
same,CDKN2AIPNL regulation (top genes commonly regulated),[1],↓
same,DDX51 down-regulation: symbol for regulation in common,[1],¶(DPA)
same,DDX51 regulation (top genes commonly regulated),[1],↓
same,HIST2H2AA3/HIST2H2AA4 up-regulation: symbol for regulation in common,[1],¶(EPA)
same,IL8 regulation (top genes commonly regulated),[1],↓
same,LOX up-regulation: symbol for regulation in common,[1],¶(EPA)
same,MST1 (includes EG: 15235) regulation (top genes commonly regulated),[1],↑
same,MST1 (includes EG: 15235) up-regulation: symbol for regulation in common,[1],¶(DPA)
